In brackets after ≈: the same amount, converted by molar mass. Where two headings read alike, the source gives them in different places. Some results are limits rather than exact numbers.

For one data set, the target named is AChE (Electrophorus electricus, UniProt O42275). Briefly: Acetylcholinesterase inhibitory activity (Ellman method, modified). Format: biochemical. As to the method: (§1) Cholinesterase inhibitory activities were analyzed as by Ellman and co-workers with some modifications as by López and co-workers. Fifty microliters of AChE or BuChE phosphate buffer (8m M K2HPO4, 2.3 mM NaH2PO4, 0.15 M NaCl, pH 7.5) and 50 μL of the sample dissolved in the same buffer were added to the wells. The plates were incubated for 30 min at room temperature before 100 μL of the substrate solution (0.1 M Na2HPO4, […], and 0.6 mM acetylthiocholine iodide, ATCI, or 0.24 mM butyrylthiocholine iodide, BTCI, in Millipore water, pH 7.5) was added. The absorbance was read in a Labsystem microplate reader (Helsinki, Finland) at 405 nm after 10 min. […] In a first step, samples were assessed at 10, 100 and 200 µg mL^−1 towards both enzymes. […] Enzyme activity was calculated as a percentage compared to an assay using a buffer without any inhibitor. The cholinesterase inhibitory data were analyzed with the software Microsoft Office Excel 2010.
Sequence of AChE (O42275 24-633): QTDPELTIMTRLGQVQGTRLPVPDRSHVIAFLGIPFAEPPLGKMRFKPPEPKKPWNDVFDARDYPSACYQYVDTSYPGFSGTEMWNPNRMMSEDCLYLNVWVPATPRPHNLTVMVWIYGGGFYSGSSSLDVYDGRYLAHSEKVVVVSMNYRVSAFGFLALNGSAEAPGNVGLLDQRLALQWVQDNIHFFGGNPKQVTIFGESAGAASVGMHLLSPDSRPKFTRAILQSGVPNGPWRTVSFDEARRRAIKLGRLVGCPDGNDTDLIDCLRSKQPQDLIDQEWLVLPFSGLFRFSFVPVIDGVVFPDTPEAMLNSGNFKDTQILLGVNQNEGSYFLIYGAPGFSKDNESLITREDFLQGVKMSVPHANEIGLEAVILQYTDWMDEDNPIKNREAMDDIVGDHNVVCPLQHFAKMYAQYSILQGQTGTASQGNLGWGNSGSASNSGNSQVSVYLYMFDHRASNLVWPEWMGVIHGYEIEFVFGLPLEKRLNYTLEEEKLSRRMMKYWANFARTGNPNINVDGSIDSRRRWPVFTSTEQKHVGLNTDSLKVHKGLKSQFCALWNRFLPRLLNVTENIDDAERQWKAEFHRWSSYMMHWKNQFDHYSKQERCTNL
On the technique in general: In Ellman's method for cholinesterases, released thiocholine reacts with DTNB.

Data set [1] can be described thus: Cytotoxicity test against mammalian L6 cell line. In kind it is cell-based. Conditions: L6 cells (rat skeletal myoblasts). As to the method:
(§2) In vitro tests for the biological activity of the alkaloids isolated from C. amabile against Trypanosoma brucei rhodesiense (trypomastigotes forms, STIB 900 strain), Trypanosoma cruzi (axenic grown amastigotes forms, Tulahuen C4 strain), Leishmania donovani (amastigotes forms, MHOM-ET-67/L82 strain), and Plasmodium falciparum (intraerythrocytic forms, IEF, NF54 strain) and a cytotoxicity test against the mammalian L6 cell line from rat skeletal myoblasts were carried out at the Swiss Tropical and Public Health Institute (Swiss TPH, Basel, Switzerland) according to established protocols as described by Orhan and co-workers. The reference drugs used in these assays were melarsoprol, benznidazole, miltefosine, chloroquine and podophyllotoxin, respectively.

The test system of data set [2] is Trypanosoma brucei rhodesiense (trypomastigotes forms, STIB 900 strain). Kind of data set: In vitro antiprotozoal activity against T. brucei rhodesiense. Format: cell-based. Conditions: read-out: T. brucei rhodesiense IC50. The protocol: as §2
The next data set deals with BuChE (Equus caballus, UniProt P81908). Kind of data set: Butyrylcholinesterase inhibitory activity (Ellman method, modified). In kind it is biochemical. The protocol:
as §1

Data set [3] concerns Plasmodium falciparum (intraerythrocytic forms, IEF, NF54 strain). Briefly: In vitro antiprotozoal activity against P. falciparum NF54. In kind it is cell-based. As to the method:
as §2

For data set [4], the system named is Trypanosoma cruzi (axenic grown amastigotes forms, Tulahuen C4 strain). Kind of data set: In vitro antiprotozoal activity against T. cruzi. Format: cell-based. Conditions: read-out: T. cruzi IC50. The protocol:
as §2

Data set [5] relates to Leishmania donovani (amastigotes forms, MHOM-ET-67/L82 strain). Briefly: In vitro antiprotozoal activity against L. donovani. In kind it is cell-based. Conditions: read-out: L. donovani IC50. As to the method:
as §2

Data set [6] concerns chloroquine-sensitive strain of Plasmodium falciparum. Also on record: method as in PMID 8229016. Conditions: read-out: IC50 against chloroquine-sensitive strain of Plasmodium falciparum; cited from earlier work.
Data set [7] relates to chloroquine-resistant strain of Plasmodium falciparum. Conditions: read-out: IC50 against chloroquine-resistant strain of Plasmodium falciparum; cited from earlier work.
The mark [8] stands for this setting: trypomastigotes forms, STIB 900 strain.
Where [9] appears, read: intraerythrocytic forms, NF54 strain, read-out: P. falciparum IC50.
Setting [10] is: amastigotes forms, Tulahuen C4 strain.
Setting [11] is: amastigotes forms, MHOM-ET-67/L82 strain.

Sequence of BuChE (P81908 whole entry): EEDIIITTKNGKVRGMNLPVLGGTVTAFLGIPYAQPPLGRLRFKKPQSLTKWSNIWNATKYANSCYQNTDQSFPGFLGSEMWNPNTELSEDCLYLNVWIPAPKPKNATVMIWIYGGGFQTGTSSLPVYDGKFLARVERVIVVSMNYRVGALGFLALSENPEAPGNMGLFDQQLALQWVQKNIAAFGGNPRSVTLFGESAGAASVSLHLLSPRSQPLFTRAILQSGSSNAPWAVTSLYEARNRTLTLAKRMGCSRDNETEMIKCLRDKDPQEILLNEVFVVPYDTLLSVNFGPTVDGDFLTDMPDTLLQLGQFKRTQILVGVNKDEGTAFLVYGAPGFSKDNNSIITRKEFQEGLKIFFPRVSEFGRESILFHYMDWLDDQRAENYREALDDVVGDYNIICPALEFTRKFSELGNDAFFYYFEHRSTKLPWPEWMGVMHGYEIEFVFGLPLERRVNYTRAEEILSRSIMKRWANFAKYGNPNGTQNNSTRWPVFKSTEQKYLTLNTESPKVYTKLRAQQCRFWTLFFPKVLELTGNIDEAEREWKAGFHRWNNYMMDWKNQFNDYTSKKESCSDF

A word on the IC50: it is the concentration at which inhibition is half-maximal. As to `CN1CCC23c4cc5c(cc4C4OC(CCC12)C3O4)OCO5` (centres unmarked) [Augustamine (22), Augustamine], on AChE, the “AChE inhibitory activity (in words)” value is recorded as “did not show any cholinesterase inhibitory activities”. Moreover, the IC50 in [1] was 81.55 ± 0.64 µg/mL (≈ 271 µM); in data set [2] (setting [8]) it was 19.2 ± 2.97 µg/mL (≈ 63.7 µM); in [3] (setting [9]) it was 20.4 ± 0.21 µg/mL (≈ 67.5 µM); in data set [4] (setting [10]) it was 54 ± 4.53 µg/mL (≈ 179 µM); in data set [5] (setting [11]) it was > 100 µg/mL. On BuChE, the “BuChE inhibitory activity (in words)” value is “did not show any cholinesterase inhibitory activities”.
As to `CO[C@@H]1C[C@H]2N3CC[C@@]2(c2cc4c(cc2C3)OCO4)[C@H]2O[C@@H]12` [Augustine (13), Augustine], the “AChE inhibitory activity (in words)” value at AChE is “moderate”. Further, the IC50 is > 100 µg/mL in data set [1]; 15.1 ± 1.06 µg/mL (≈ 49.9 µM) in data set [2] (setting [8]); 460 nM in data set [6]; 600 nM in data set [7]; 14.2 ± 0.14 µg/mL (≈ 47.1 µM) in [3] (setting [9]); 56 ± 0.71 µg/mL (≈ 186 µM) in data set [4] (setting [10]). The IC50 in [5] (setting [11]) is > 100 µg/mL.
Regarding `CO[C@@H]1C[C@@H]2[C@@]3(CC[N@@+]2([O-])Cc2cc4c(cc23)OCO4)[C@H]2O[C@@H]12` [Augustine N-oxide (1), Augustine N-oxide], the IC50 in data set [1] was > 100 µg/mL; in data set [2] (setting [8]), 58.9 ± 11.5 µg/mL (≈ 185 µM); in data set [3] (setting [9]), 36.6 ± 4.74 µg/mL (≈ 115 µM); in data set [4] (setting [10]), 66.2 ± 11.8 µg/mL (≈ 209 µM); in data set [5] (setting [11]) it was > 100 µg/mL.
As for `CO[C@H]1C=C[C@@]23CCN(Cc4cc5c(cc42)OCO5)[C@@H]3C1` [Buphanisine (8), Buphanisine], the “AChE inhibitory activity (in words)” value at AChE is “low”. Moreover, the IC50 in [1] was 72.8 ± 5.02 µg/mL (≈ 255 µM); in data set [2] (setting [8]), 16.5 ± 0.57 µg/mL (≈ 57.8 µM); in data set [3] (setting [9]), 4.28 ± 0.18 µg/mL (≈ 15 µM); in data set [4] (setting [10]), 55.5 ± 4.6 µg/mL (≈ 195 µM); in data set [5] (setting [11]) it was > 100 µg/mL.
As for `CO[C@H]1C=C[C@@]23CC[N@@+]([O-])(Cc4cc5c(cc42)OCO5)[C@@H]3C1` [Buphanisine N-oxide (2), Buphanisine N-oxide], the IC50 in data set [1] is > 100 µg/mL; in data set [2] (setting [8]), 55.2 ± 4.31 µg/mL (≈ 183 µM); in [3] (setting [9]), 32.55 ± 0.07 µg/mL (≈ 108 µM); in data set [4] (setting [10]) it was 64 ± 1.34 µg/mL (≈ 213 µM); in data set [5] (setting [11]), > 100 µg/mL.
On to `O[C@H]1C=C[C@@]23CCN(Cc4cc5c(cc42)OCO5)[C@@H]3C1` [Crinine (10), Crinine], for which the IC50 is > 100 µg/mL in data set [1]; 18.9 ± 0.78 µg/mL (≈ 69.8 µM) in [2] (setting [8]); 30.9 ± 2.19 µg/mL (≈ 114 µM) in [3] (setting [9]); 57.5 ± 6.86 µg/mL (≈ 212 µM) in data set [4] (setting [10]); > 100 µg/mL in data set [5] (setting [11]).
As to `O=C(Cn1ccnc1[N+](=O)[O-])NCc1ccccc1` [benznidazole, reference compound], the IC50 in [4] (TULAHUEN) was found to be 0.865 ± 0.08 µg/mL (≈ 3.32 µM).
Regarding `CCN(CC)CCCC(C)Nc1ccnc2cc(Cl)ccc12` (centres unmarked) [chloroquine, reference compound], the IC50 in data set [3] (NF54, read-out: P. falciparum IC50) was 0.004 ± 0.0007 µg/mL (≈ 0.0125 µM).
Regarding `Nc1nc(N)nc(Nc2ccc([As]3SCC(CO)S3)cc2)n1` (centres unmarked) [melarsoprol, reference compound], in data set [2], the IC50 was 0.003 ± 0.001 µg/mL.
As for `CCCCCCCCCCCCCCCCOP(=O)([O-])OCC[N+](C)(C)C` [miltefosine, reference compound], in data set [5], the IC50 is 0.515 ± 0.06 µg/mL (≈ 1.26 µM).
Turning to `COc1cc([C@@H]2c3cc4c(cc3[C@H](O)[C@H]3COC(=O)[C@H]23)OCO4)cc(OC)c1OC` [podophyllotoxin, reference compound], in data set [1], it took 0.004 ± 0.0007 µg/mL (≈ 0.00965 µM) to reach half-maximal inhibition (IC50).
